The results in this text go back to patent US12433869B2, “Preventing and treating malaria” (priority 2019, dated 2025).

Structures are written as SMILES.

For assay [1], the system named is RBC membrane permeability to water. Briefly: Cell scan of whole blood contacted with agents (Example 2), Pk0 measured. The class given is cell-based, human. As to conditions: for Pk0: whole blood of healthy volunteer in ACD, agent at the concentration listed in Table 1.
Method: A sample of whole blood from a healthy volunteer was drawn into ACD anticoagulant. The unwashed sample was divided into aliquots and was analyzed using the Prior Shine Technology and/or the Provided Cell Scanning Technologies. The following outputs were obtained from the sample:
Using the technologies described herein, a cell-by-cell analysis was converted into a plot of percent change of cell volume vs. osmolality (“Cell Scan Plot”) by converting the individual peak voltage into a cell volume, then calculating a mean volume for an aliquot of cells, and plotting the means to generate the Cell Scan Plot. The percentage change of cell volume at each osmolality is calculated and compared to the mean cell volume of an isotonic cell (e.g., FIG. 1b). On such a plot, Pk0 (see 101) is the osmotic pressure at which the net water flow is zero (i.e., when a cell achieved its maximum volume, i.e., when it is a perfect sphere).
A sample of whole blood from a healthy volunteer was drawn into ACD anticoagulant. Blood samples were divided into aliquots, and each sample was contacted with an agent at concentrations consistent with the agent's in vivo concentration. […] Five minutes after exposure to an agent, the blood sample was evaluated for cell membrane permeability and Pk0 was measured.
In assay [2] the test system is RBC membrane permeability. Briefly: Effect of 5-HT on cell membrane permeability of healthy RBCs (Example 3). The class given is cell-based, human. How it is done: A sample of whole blood from a healthy volunteer was drawn into ACD anticoagulant. The sample was then treated with 5-HT (900 ng/mL), and cell membrane permeability was evaluated 5 minutes after treatment.

Regarding `NCCc1c[nH]c2ccc(O)cc12` [Agent 5-HT, 5-hydroxytryptamine], the Pk0 in assay [1] is on record as 110 mOsm/kg. Besides, the Pk0 after treatment entry in assay [2] (5-HT 900 ng/mL, 5 minutes after treatment, normal Pk0 approx. 140 before) is “approx. 110 mOsm/kg”. In assay [2] (FIG. 5, RBCs of normal healthy individual), the “Pk0 shift after contacting with 5-HT” value is on record as “approx. 30 mOsm/kg”.
For the molecule `C[C@@H]1[C@H](O)[C@@H](C)/C=C/C=C/C=C/C=C/C=C/C=C/C=C/[C@H](O[C@@H]2O[C@H](C)[C@@H](O)[C@H](N)[C@@H]2O)C[C@@H]2O[C@](O)(C[C@@H](O)C[C@@H](O)[C@H](O)CC[C@@H](O)C[C@@H](O)CC(=O)O[C@H]1C)C[C@H](O)[C@H]2C(=O)O` [Amphotericin B], in assay [1], the Pk0 was 85 mOsm/kg.
For the molecule `OC[C@H]1O[C@@H](O[C@H]2[C@H](O)[C@@H](O)C(O)O[C@@H]2CO)[C@H](O)[C@@H](O)[C@H]1O` (some centres unmarked) [Lactose], the “Pk0 lowered to” value in assay [1] (after 10 minutes) was 100 mOsm/kg.
